Measured values taken from patent US10350271B2, “Lipidated peptides for lowering blood glucose” (USTAV ORGANICKE CHEMIE A BIOCHEMIE AKADEMIE VED CR, V.V.I., priority 2014, dated 2019).

Key:
diabetic db/db mice = test: IPGTT after 14 days administration to diabetic db/db mice; type: in vivo; settings: 5 mg/kg SC twice a day for 14 days, vs saline
Experimental: Then, mice were fasted overnight and IPGTT was performed. After initial blood glucose measurement, 2 g/kg glucose solution was administered IP and glucose followed every hour for 7 hours. Glucose level is shown at the end of the experiment (420 min).
Db/db male mice and their respective controls were acclimatized after arrival, housed 2-3 mice per cage, and used in the experiment at age 11-12 weeks. Mice had free access to food and water, and were subjected to a 14-day experiment. […] The body weight of the mice was followed simultaneously. Following 14 days of treatment, mice were fasted overnight and IPGTT was performed. After initial blood glucose measurement, 2 g/kg glucose solution was administered IP, and glucose levels were measured every hour for 7 hours.

[1] = system: obese diabetic monosodium-glutamate (MSG) mice; test: IPGTT after 10 days administration to obese diabetic MSG mice; type: in vivo; settings: 5 mg/kg SC twice a day for 10 days, vs saline
Experimental: Mice were subjected to a 10-day food intake experiment. […] After 10 days of treatment, mice were fasted overnight and IPGTT was performed. After initial blood glucose measurement, 2 g/kg glucose solution was administered intraperitoneally (IP).
Obese mice were created using MSG. L-glutamic acid sodium salt hydrate (Sigma, St. Louis, USA) was subcutaneously (SC) administered to newborn male mice, at a dose of 4 mg/g body weight, daily from postnatal days 2 to 8 to induce obesity. The MSG treated mice used for experiments were 24 weeks old. Age related mice were used as controls. Obese and control mice were placed into separate cages with free access to food and water. The following week, mice were subjected to a 10-day food intake experiment. […] Consumption of the St-1 diet and the body weight of the mice were simultaneously followed. After 10 days of treatment, mice were fasted overnight and IPGTT was performed. After initial blood glucose measurement, 2 g/kg glucose solution was administered IP.
Blood glucose was then measured at 15, 30, 60, 120 and 180 min post injection as described above.

Wistar rats = test: Food intake in fasted rats after SC injection; type: in vivo; settings: overnight fasted rats, compared to controls given vehicle
How it was run: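 Overnight-fasted animals (food removed 17 h before dosing, water available) in individual cages got saline, PrRP or lipidated PrRP analogs SC at 1-10 mg/kg.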

rat PrRP receptor = molecular target: T1, rat PrRP receptor (Rattus norvegicus, UniProt Q64121); test: Competitive binding in RC-4B/C rat pituitary cells (125I-rat PrRP31)
T1 construct: host or cells: RC-4B/C rat pituitary cell line
T1 sequence (Q64121 1-370): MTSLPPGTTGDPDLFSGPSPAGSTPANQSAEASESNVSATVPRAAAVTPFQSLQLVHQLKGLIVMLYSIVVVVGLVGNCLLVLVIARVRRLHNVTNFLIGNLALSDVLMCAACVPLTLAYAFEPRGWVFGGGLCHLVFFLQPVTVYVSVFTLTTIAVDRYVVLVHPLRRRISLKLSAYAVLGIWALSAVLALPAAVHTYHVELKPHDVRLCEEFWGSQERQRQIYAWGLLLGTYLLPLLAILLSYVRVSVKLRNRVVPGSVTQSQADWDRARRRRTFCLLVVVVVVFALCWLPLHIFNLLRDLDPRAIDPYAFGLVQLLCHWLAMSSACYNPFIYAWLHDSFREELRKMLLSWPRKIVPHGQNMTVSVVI
How it was run: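 Intact rat pituitary RC-4B/C cells incubated 60 min at room temperature with […] rat 125I-PrRP31 and unlabeled analog (10^−11 to 10^−4 mol·l^−1) in HEPES pH 7.4 buffer. Cell-bound radioactivity γ-counted after NaOH lysis; one-site competition fit.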

SMILES: CCCCCCCCCCCCCCCC(=O)N[C@@H](CO)C(=O)N[C@@H](CCCNC(=N)N)C(=O)N[C@H](C(=O)N[C@@H](Cc1c[nH]cn1)C(=O)N[C@@H](CCCNC(=N)N)C(=O)N[C@@H](Cc1c[nH]cn1)C(=O)N[C@@H](CO)C(=O)N[C@@H](CCSC)C(=O)N[C@@H](CCC(=O)O)C(=O)N[C@H](C(=O)N[C@@H](CCCNC(=N)N)C(=O)N[C@H](C(=O)N1CCC[C@H]1C(=O)N[C@@H](CC(=O)O)C(=O)N[C@H](C(=O)N[C@@H](CC(N)=O)C(=O)N1CCC[C@H]1C(=O)N[C@@H](C)C(=O)N[C@@H](Cc1c[nH]c2ccccc12)C(=O)N[C@@H](Cc1ccc(O)cc1)C(=O)N[C@@H](C)C(=O)N[C@@H](CO)C(=O)N[C@@H](CCCNC(=N)N)C(=O)NCC(=O)N[C@H](C(=O)N[C@@H](CCCNC(=N)N)C(=O)N1CCC[C@H]1C(=O)N[C@H](C(=O)NCC(=O)N[C@@H](CCCNC(=N)N)C(=O)N[C@@H](Cc1ccccc1)C(N)=O)C(C)C)[C@@H](C)CC)[C@@H](C)CC)[C@@H](C)O)[C@@H](C)CC)[C@@H](C)O [Analog 43]
- IPGTT glucose level at end of experiment (420 min) (diabetic db/db mice): significantly lower
- IPGTT area under the curve through 180 min [1]: substantially lower
- IPGTT blood glucose levels [1]: lower
- Food intake in rats (Wistar rats): significantly reduced
- Ki (rat PrRP receptor): 0.95 ± 0.35 nM
- Displacement of rat 125I-PrRP binding (rat PrRP receptor; RC-4B/C cells, rat PrRP receptor): nmol·l^−1 range
- % of PrRP31, RC-4B/C rat pituitary cells (rat PrRP receptor; affinity relative to PrRP31): 519%
